Assay results reported in PMC12090182, “Repurposing of the RIPK1-Selective Benzo[1,4]oxazepin-4-one Scaffold for the Development of a Type III LIMK1/2 Inhibitor” (ACS Chemical Biology, 2025).
Read-outs that look alike come from different tables or passages of the source.

Legend:
BTK = target: T1, BTK (Homo sapiens, UniProt Q06187); test: NanoBRET cellular target engagement; type: cell-based; settings: HEK293T cells, read-out: EC50 (NanoBRET), Figure 4C
T1 construct: full-length LIMK1/2, RIPK1, BTK, and LRRK2 cloned in a frame in a NanoLuc-vector (Promega); host or cells: HEK293T
Experimental: (§1) The assay was performed as described previously.[31],[32] In brief, full-length LIMK1/2, RIPK1, BTK, and LRRK2 cloned in a frame in a NanoLuc-vector (Promega) were transfected into HEK293T cells (ATCC CRL-1573) using FuGENE HD (Promega, E2312), and proteins were allowed to express for 20 h. The serially diluted inhibitor and NanoBRET Kinase Tracer (Promega) used at the previously determined Tracer KD,app (Table S1) were pipetted into white 384-well plates (Greiner 781 207) using an ECHO 550 acoustic dispenser (Labcyte). The corresponding transfected cells were added and reseeded at a density of 2 × 10^5 cells/mL after trypsinization and resuspension in Opti-MEM without phenol red (Life Technologies). The system was allowed to equilibrate for 2 h at 37 °C and 5% CO2 prior to BRET measurements. To measure BRET, a NanoBRET Nano-Glo substrate and an extracellular NanoLuc inhibitor (Promega, N2160) were added as per the manufacturer's protocol, and filtered luminescence was measured on a PHERAstar plate reader (BMG Labtech) equipped with a luminescence filter pair (a 450 nm BP filter (donor) and a 610 nm LP filter (acceptor)). Competitive displacement data were then plotted using GraphPad Prism 10 software using a normalized three-parameter curve fit with the following equation: Y = 100/( [drawing 1] ).

LRRK2 [1] = target: T2, LRRK2 (Homo sapiens, UniProt Q5S007); test: NanoBRET cellular target engagement; type: cell-based; settings: LRRK2, HEK293T cells; read-out: EC50 (NanoBRET), Figure 4C
Experimental: as §1

LRRK2 [2] = target: T2, LRRK2; test: scanMAX KINOMEscan (Eurofins); type: binding
FLT3(ITD,D835V) = type: binding; settings: 1000 nM
CAMK2B = CAMK2B (Homo sapiens, UniProt Q13554); test: scanMAX KINOMEscan (Eurofins); type: binding; settings: 1000 nM, read-out: Percent Control
From the text: (§2) Supplement cb5c00097_si_002.xlsx, sheet "Table S6 (Eurofins Selectivity)" | column: Percent Control

EPHA8 = EPHA8 (Homo sapiens, UniProt P29322); test: scanMAX KINOMEscan (Eurofins); type: binding; settings: 1000 nM, read-out: Percent Control
From the text: as §2

MERTK = MERTK (Homo sapiens, UniProt Q12866); test: scanMAX KINOMEscan (Eurofins); type: binding; settings: 1000 nM, read-out: Percent Control
From the text: as §2

PRKX = PRKX (Homo sapiens, UniProt P51817); test: scanMAX KINOMEscan (Eurofins); type: binding; settings: 1000 nM, read-out: Percent Control
From the text: as §2

[3] = target: RPS6KA4(Kin.Dom.2-C-terminal) (Homo sapiens, UniProt O75676); test: scanMAX KINOMEscan (Eurofins); type: binding; settings: compound concentration 100 nM; Entrez RPS6KA4; read-out: Percent Control
From the text: as §2

SRMS = SRMS (Homo sapiens, UniProt Q9H3Y6); test: scanMAX KINOMEscan (Eurofins); type: binding; settings: compound concentration 100 nM; Entrez SRMS; read-out: Percent Control
From the text: as §2

SRPK2 = SRPK2 (Homo sapiens, UniProt P78362); test: scanMAX KINOMEscan (Eurofins); type: binding; settings: compound concentration 100 nM; Entrez SRPK2; read-out: Percent Control
From the text: as §2

TYRO3 = TYRO3 (Homo sapiens, UniProt Q06418); test: scanMAX KINOMEscan (Eurofins); type: binding; settings: 1000 nM, read-out: Percent Control
From the text: as §2

[4] = target: ABL1(H396P)-phosphorylated (Homo sapiens, UniProt P00519, H396P); test: biochemical; type: binding; settings: read-out: Percent Control
EGFR(S752-I759del) = EGFR(S752-I759del) (Homo sapiens, UniProt P00533, DEL752-759); test: biochemical; type: binding; settings: read-out: Percent Control
PIK3CA(I800L) = PIK3CA(I800L) (Homo sapiens, UniProt P42336, I800L); test: biochemical; type: binding; settings: read-out: Percent Control
ALK(L1196M) = ALK(L1196M) (Homo sapiens, UniProt Q9UM73, L1196M); test: biochemical; type: binding; settings: 1000 nM, read-out: Percent Control
EGFR(G719S) = EGFR(G719S) (Homo sapiens, UniProt P00533, G719S); test: biochemical; type: binding; settings: 1000 nM, read-out: Percent Control
PIK3CA(H1047L) = PIK3CA(H1047L) (Homo sapiens, UniProt P42336, H1047L); test: biochemical; type: binding; settings: read-out: Percent Control
[5] = target: ABL1(F317L)-phosphorylated (Homo sapiens, UniProt P00519, F317L); test: biochemical; type: binding; settings: read-out: Percent Control
EGFR(L858R,T790M) = EGFR(L858R,T790M) (Homo sapiens, UniProt P00533, L858R/T790M); test: biochemical; type: binding; settings: read-out: Percent Control
EGFR(T790M) = EGFR(T790M) (Homo sapiens, UniProt P00533, T790M); test: biochemical; type: binding; settings: 1000 nM, read-out: Percent Control
FGFR3(G697C) = FGFR3(G697C) (Homo sapiens, UniProt P22607, G697C); test: biochemical; type: binding; settings: read-out: Percent Control
[6] = target: ABL1(F317I)-phosphorylated (Homo sapiens, UniProt P00519, F317I); test: biochemical; type: binding; settings: compound concentration 100 nM; Entrez ABL1; read-out: Percent Control
[7] = target: EGFR(L747-S752del, P753S) (Homo sapiens, UniProt P00533, DEL747-752/P753S); test: biochemical; type: binding; settings: compound concentration 100 nM; Entrez EGFR; read-out: Percent Control
FLT3(D835H) = FLT3(D835H) (Homo sapiens, UniProt P36888, D835H); test: biochemical; type: binding; settings: compound concentration 100 nM; Entrez FLT3; read-out: Percent Control

T2 sequence (Q5S007 whole entry): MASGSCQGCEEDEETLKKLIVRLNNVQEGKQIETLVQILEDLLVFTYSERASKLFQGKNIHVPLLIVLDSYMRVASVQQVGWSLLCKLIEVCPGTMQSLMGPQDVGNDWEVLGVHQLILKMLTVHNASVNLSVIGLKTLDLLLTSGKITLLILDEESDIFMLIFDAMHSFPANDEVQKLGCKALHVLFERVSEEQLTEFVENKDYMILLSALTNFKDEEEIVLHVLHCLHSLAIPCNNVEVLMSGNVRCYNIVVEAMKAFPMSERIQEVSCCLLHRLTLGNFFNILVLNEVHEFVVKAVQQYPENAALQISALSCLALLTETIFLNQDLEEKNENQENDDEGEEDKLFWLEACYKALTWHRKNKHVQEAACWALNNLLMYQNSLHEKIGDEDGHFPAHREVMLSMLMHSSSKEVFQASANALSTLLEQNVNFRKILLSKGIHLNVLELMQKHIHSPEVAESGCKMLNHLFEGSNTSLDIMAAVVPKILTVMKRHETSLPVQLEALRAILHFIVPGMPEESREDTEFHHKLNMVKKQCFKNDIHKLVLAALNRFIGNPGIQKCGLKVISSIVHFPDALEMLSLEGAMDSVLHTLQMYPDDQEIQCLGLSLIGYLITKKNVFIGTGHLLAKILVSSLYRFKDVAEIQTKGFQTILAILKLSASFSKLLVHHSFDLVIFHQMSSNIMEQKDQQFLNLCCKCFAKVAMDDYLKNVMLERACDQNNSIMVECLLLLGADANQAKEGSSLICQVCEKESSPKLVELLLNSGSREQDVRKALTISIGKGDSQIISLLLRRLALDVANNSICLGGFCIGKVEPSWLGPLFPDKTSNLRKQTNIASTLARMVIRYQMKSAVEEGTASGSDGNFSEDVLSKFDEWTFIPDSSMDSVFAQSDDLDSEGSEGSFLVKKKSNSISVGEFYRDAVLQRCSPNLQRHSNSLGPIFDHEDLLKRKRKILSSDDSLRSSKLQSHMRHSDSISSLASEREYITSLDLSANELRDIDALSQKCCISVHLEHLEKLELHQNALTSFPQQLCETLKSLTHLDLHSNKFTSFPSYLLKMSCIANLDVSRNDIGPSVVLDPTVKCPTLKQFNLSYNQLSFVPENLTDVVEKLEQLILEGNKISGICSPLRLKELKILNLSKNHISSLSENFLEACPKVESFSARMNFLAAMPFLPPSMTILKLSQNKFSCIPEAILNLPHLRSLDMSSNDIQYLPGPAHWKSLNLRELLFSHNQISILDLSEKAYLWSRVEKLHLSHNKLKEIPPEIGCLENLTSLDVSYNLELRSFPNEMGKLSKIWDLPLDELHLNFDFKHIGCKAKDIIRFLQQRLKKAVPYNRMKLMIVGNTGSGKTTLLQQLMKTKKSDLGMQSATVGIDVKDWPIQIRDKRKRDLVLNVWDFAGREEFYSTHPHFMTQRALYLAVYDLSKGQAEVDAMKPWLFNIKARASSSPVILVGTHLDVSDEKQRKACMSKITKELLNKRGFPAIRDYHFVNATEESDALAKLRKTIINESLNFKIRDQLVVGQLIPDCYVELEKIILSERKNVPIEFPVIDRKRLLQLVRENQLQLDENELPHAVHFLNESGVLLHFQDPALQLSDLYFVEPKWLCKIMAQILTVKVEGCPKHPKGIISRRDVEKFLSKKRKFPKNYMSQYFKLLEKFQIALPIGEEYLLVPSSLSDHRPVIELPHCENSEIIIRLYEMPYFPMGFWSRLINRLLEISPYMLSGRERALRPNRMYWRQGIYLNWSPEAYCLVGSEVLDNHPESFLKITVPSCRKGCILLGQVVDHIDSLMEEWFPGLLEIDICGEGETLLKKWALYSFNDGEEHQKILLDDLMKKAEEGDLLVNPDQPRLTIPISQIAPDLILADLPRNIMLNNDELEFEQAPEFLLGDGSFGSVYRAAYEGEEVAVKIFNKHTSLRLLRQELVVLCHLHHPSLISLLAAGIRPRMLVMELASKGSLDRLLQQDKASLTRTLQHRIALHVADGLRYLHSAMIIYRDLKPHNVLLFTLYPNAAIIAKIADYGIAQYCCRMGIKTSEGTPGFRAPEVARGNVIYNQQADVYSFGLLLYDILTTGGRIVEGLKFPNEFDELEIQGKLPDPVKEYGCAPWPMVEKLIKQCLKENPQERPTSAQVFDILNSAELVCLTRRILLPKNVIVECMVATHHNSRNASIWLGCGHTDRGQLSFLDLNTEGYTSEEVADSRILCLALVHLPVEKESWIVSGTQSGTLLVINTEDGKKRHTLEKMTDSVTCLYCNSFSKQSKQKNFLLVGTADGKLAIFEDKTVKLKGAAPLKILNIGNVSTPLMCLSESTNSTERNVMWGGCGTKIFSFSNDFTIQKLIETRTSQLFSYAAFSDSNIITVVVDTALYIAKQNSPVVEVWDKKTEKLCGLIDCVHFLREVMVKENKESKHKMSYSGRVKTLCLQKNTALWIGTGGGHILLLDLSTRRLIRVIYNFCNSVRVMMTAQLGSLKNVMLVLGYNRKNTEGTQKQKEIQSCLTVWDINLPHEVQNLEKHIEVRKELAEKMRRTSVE
Sequence of RPS6KA4(Kin.Dom.2-C-terminal) (O75676 411-674): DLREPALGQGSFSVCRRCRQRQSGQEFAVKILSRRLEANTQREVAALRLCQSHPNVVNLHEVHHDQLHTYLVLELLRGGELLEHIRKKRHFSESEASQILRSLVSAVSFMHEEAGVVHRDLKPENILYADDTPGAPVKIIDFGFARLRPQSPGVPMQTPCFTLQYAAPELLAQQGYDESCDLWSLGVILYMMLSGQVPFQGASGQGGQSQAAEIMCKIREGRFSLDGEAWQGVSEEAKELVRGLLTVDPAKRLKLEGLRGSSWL
Sequence of TYRO3 (Q06418 41-890): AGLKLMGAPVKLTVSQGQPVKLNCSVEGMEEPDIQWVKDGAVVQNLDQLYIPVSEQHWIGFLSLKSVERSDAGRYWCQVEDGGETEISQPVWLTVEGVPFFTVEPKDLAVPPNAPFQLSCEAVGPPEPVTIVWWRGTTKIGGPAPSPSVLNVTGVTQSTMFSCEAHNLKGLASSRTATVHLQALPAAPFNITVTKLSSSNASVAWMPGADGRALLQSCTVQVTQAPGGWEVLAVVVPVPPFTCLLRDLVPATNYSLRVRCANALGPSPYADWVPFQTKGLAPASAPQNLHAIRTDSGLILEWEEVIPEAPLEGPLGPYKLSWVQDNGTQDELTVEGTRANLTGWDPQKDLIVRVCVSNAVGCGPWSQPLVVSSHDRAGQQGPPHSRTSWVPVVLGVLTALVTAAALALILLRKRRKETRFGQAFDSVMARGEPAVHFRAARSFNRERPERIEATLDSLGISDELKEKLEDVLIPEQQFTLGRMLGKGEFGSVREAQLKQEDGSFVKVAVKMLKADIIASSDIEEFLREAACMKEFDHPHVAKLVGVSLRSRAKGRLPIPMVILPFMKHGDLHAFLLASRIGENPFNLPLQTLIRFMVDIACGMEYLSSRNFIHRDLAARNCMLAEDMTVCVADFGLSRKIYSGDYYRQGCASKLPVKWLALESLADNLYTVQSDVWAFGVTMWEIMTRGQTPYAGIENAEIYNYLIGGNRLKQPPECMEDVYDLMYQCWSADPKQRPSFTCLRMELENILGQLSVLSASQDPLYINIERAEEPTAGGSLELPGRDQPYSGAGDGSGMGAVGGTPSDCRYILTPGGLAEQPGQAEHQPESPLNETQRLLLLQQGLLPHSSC
Sequence of EGFR(S752-I759del) (P00533 other isoform, or with tags, fused parts or gaps DEL752-759): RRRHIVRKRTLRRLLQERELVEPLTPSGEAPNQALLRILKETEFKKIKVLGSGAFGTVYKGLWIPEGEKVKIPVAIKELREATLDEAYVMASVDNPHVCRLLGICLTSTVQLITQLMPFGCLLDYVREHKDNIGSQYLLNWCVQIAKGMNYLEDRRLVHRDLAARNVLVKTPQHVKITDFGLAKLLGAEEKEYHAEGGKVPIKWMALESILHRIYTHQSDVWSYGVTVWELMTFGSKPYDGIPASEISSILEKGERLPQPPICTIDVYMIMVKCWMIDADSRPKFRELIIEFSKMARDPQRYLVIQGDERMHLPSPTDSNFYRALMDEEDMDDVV
Sequence of EPHA8 (P29322 28-1005): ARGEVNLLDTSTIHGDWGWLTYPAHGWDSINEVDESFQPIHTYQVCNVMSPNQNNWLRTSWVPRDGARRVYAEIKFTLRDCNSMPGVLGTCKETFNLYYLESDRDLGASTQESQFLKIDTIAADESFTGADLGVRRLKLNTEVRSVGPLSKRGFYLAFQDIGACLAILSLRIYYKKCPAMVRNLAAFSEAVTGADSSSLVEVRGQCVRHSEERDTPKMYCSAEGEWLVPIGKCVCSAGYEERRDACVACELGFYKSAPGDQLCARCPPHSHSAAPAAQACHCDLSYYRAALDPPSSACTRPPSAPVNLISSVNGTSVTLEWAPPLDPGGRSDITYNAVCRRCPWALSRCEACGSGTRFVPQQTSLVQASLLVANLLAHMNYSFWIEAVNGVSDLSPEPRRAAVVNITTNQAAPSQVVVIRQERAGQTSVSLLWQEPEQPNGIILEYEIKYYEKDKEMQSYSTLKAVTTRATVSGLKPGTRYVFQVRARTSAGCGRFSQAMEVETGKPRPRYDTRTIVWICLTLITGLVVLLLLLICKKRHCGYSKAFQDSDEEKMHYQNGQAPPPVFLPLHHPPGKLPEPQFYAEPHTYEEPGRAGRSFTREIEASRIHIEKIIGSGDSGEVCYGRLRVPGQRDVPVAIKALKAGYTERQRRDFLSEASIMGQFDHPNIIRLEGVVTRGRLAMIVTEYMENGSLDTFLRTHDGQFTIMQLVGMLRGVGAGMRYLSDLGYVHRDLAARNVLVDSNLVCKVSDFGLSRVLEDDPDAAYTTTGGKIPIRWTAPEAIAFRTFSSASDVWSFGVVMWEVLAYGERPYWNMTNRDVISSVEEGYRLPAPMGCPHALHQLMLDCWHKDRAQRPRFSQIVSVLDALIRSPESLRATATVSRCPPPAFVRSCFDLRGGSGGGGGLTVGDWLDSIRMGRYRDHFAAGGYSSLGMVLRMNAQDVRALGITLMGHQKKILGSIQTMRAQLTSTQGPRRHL

CN1C(=O)[C@@H](N2CCc3c(nn(Cc4ccccc4)c3C(N)=O)C2=O)COc2cc(Cl)ccc21 [Compound 10, (S)-2-benzyl-6-(8-chloro-5-methyl-4-oxo-2,3,4,5-tetrahydrobenzo[b][1,4]oxazepin-3-yl)-7-oxo-4,5,6,7-tetrahydro-2H-pyrazolo[3,4-c]pyridine-3-carboxamide] gave an EC50 (BTK) greater than 50 µM, an EC50 (LRRK2 [1]) greater than 50 µM and a remaining binding at 0.1 µM (LRRK2 [2]; LRRK2 (Entrez LRRK2), 100 nM, read-out: Percent Control) of 84%. For the same compound, the remaining binding at 1 µM (LRRK2 [2]; LRRK2, 1 μM, read-out: POC (Top Hits @ 1 μM)) was 62%, the remaining binding at 1 µM (LRRK2 [2]; LRRK2, 1000 nM, read-out: Percent Control) was 62% and the “Percent Control” value (FLT3(ITD,D835V)) was 81%. The remaining binding at 1 µM (CAMK2B) was 80%, the remaining binding at 1 µM (EPHA8) was 97% and the remaining binding at 1 µM (MERTK) was 98%. For the same compound, the remaining binding at 1 µM (PRKX) was 78%, the remaining binding at 0.1 µM [3] was 100% and the remaining binding at 0.1 µM (SRMS) was 90%. The remaining binding at 0.1 µM (SRPK2) was 100%, the remaining binding at 1 µM (TYRO3) was 97% and the remaining activity at 1 µM [4] was 88%. The remaining activity at 1 µM (EGFR(S752-I759del)) was 89%, the remaining activity at 1 µM (PIK3CA(I800L)) was 89% and the remaining activity at 1 µM (ALK(L1196M)) was 90%. It also gave a remaining activity at 1 µM (EGFR(G719S)) of 92%, a remaining activity at 1 µM (PIK3CA(H1047L)) of 99% and a remaining activity at 1 µM [5] of 100%. It also gave a remaining activity at 1 µM (EGFR(L858R,T790M)) of 100%, a remaining activity at 1 µM (EGFR(T790M)) of 100% and a remaining activity at 1 µM (FGFR3(G697C)) of 100%. For the same compound, the remaining activity at 0.1 µM [6] was 91%, the remaining activity at 0.1 µM [7] was 97% and the remaining activity at 0.1 µM (FLT3(D835H)) was 84%.
